Measurements: US20130183266A1, “COMPOUNDS AND METHODS FOR THE TREATMENT OR PREVENTION OF FLAVIVIRUS INFECTIONS” (Vertex Pharmaceuticals Incorporated, priority 2010, published 2013)

Legend:
[1] = tested on: HCV replicon (genotype 1b) in Huh7 hepatoma cell line ET; assay: microbe, parasite or virus in culture; format: cell-based; settings: Hepatitis C virus, Huh-7, 96 h, read-out: HCV-Replicon-1b- IC50
[2] = tested on: HCV sub-genomic replicon of genotype 1a in replicon cell line W11.8; assay: microbe, parasite or virus in culture; format: cell-based; settings: Hepatitis C virus, W11.8, 96 h, read-out: HCV-Replicon-ELISA-1a-IC50

Structure (SMILES)	IC50 [1] [nM]	IC50 [2] [nM]
[2H]c1c([2H])c([2H])c(-c2cc(N(C(=O)C3CCC(C)CC3)[C@H]3CC[C@H](O)CC3)c(C(=O)O)s2)c([2H])c1[2H] (stereo partly drawn) [Compound 1, 3-[(trans-4-Hydroxy-cyclohexyl)-(trans-4-methylcyclohexanecarbonyl)-amino]-5-d5-phenyl-thiophene-2-carboxylic acid]	100 to 1000	–
[2H][C@]1(O)CC[C@H](N(C(=O)C2CCC(C)CC2)c2cc(C#CC(C)(C)C)sc2C(=O)O)CC1 (stereo partly shown) [Compound 3]	< 100	< 100
[2H][C@]1(O)CC[C@H](N(C(=O)C2CCC(C)CC2)c2cc(-c3ccccc3)sc2C(=O)O)CC1 (stereo partly shown) [Compound 4]	100 to 1000	–
